Article PMC12888861, “Antibacterial activity of enmetazobactam against Acinetobacter spp.: a molecular dissection of mechanism of action and resistance determinants” (Antimicrobial Agents and Chemotherapy, 2025)
Read-outs that look alike come from different tables or passages of the source.

Tested on: A. non-baumannii isolates (n = 87)
Assay: MIC, broth microdilution (EUCAST), A. non-baumannii isolates
Format: cell-based, Acinetobacter spp. (non-baumannii)
Settings: for MIC: in combinations ETZ fixed at 8 mg/L
From the text: The bacterial strains used in this study comprised 208 clinical isolates from the Spanish National Acinetobacter spp. 2020 Multicenter Collection, which was previously characterized in detail by our research group, including whole-genome sequencing, phylogenetics studies, clonal dynamics, and resistance mechanisms ([2], [29]). Additionally, a collection of A. baumannii ATCC 17978 transformants coding the blaOXA-23, blaOXA-24/40, blaOXA-51, blaOXA-58, blaOXA-143, and blaOXA-201 genes, previously constructed and described by our group ([30]), was used to determine the activity of enmetazobactam against strains carrying the main CHDLs of A. baumannii.
The antimicrobial susceptibility of the 208 Acinetobacter spp. isolates was assessed using the broth microdilution method, as described in the European Committee on Antimicrobial Susceptibility Testing (EUCAST) v.15 guidelines (http://www.eucast.org/clinical_breakpoints). […] MICs for enmetazobactam alone were assessed as well. […] Subsequently, MIC testing was also conducted with a collection of A. baumannii ATCC 17978 transformants expressing clinically relevant OXA-like carbapenemase genes.
The A. baumannii ATCC 19606 strain was used as the reference strain in all susceptibility experiments, in duplicate assays. Antibiotics were purchased from Sigma-Aldrich, except enmetazobactam and durlobactam, which were obtained from Advanz Pharma and MedChemExpress, respectively.

[1] = Acinetobacter, A. non-baumannii isolates (n=87), ETZ fixed 8 mg/L in combinations

C[C@@H](O)[C@H]1C(=O)N2C(C(=O)O)=C(SCCN=CN)C[C@H]12 [imipenem]
MIC distribution 0.12: 71.3
MIC (Acinetobacter baylyi, isolate NO-Ab27, Acinetobacter baylyi, read-out: MIC): 0.12 µg/mL
MIC (Acinetobacter beijerinckii, isolate NO-Ab122, Acinetobacter beijerinckii, read-out: MIC): 0.12 µg/mL
MIC (Acinetobacter bereziniae, isolate NO-Ab70, Acinetobacter bereziniae, read-out: MIC): 0.12 µg/mL
MIC (Acinetobacter bereziniae, isolate NO-Ab84, Acinetobacter bereziniae, read-out: MIC): 0.12 µg/mL
MIC (Acinetobacter bereziniae, isolate NO-Ab104, Acinetobacter bereziniae, read-out: MIC): 0.12 µg/mL
MIC (Acinetobacter bereziniae, isolate NO-Ab114, Acinetobacter bereziniae, read-out: MIC): 0.12 µg/mL
MIC (Acinetobacter bereziniae, isolate NO-Ab115, Acinetobacter bereziniae, read-out: MIC): 0.25 µg/mL
MIC (Acinetobacter bereziniae, isolate NO-Ab116, Acinetobacter bereziniae, read-out: MIC): 0.25 µg/mL
MIC (Acinetobacter bereziniae, isolate NO-Ab117, Acinetobacter bereziniae, read-out: MIC): 0.12 µg/mL
MIC (Acinetobacter bereziniae, isolate NO-Ab129, Acinetobacter bereziniae, read-out: MIC): 0.25 µg/mL
MIC (Acinetobacter bereziniae, isolate NO-Ab156, Acinetobacter bereziniae, read-out: MIC): 0.12 µg/mL
MIC (Acinetobacter calcoaceticus, isolate NO-Ab85, Acinetobacter calcoaceticus, read-out: MIC): 0.12 µg/mL
MIC (Acinetobacter calcoaceticus, isolate NO-Ab94, Acinetobacter calcoaceticus, read-out: MIC): ≤ 0.06 µg/mL
MIC (Acinetobacter calcoaceticus, isolate NO-Ab108, Acinetobacter calcoaceticus, read-out: MIC): ≤ 0.06 µg/mL
MIC (Acinetobacter calcoaceticus, isolate NO-Ab161, Acinetobacter calcoaceticus, read-out: MIC): 0.12 µg/mL
MIC (Acinetobacter calcoaceticus, isolate NO-Ab198, Acinetobacter calcoaceticus, read-out: MIC): ≤ 0.06 µg/mL
MIC (Acinetobacter calcoaceticus, isolate NO-Ab205, Acinetobacter calcoaceticus, read-out: MIC): 0.25 µg/mL
MIC (Acinetobacter calcoaceticus, isolate NO-Ab211, Acinetobacter calcoaceticus, read-out: MIC): 0.12 µg/mL
MIC (Acinetobacter courvalinii, isolate NO-Ab216, Acinetobacter courvalinii, read-out: MIC): 0.5 µg/mL
MIC (Acinetobacter dispersus, isolate NO-Ab2, Acinetobacter dispersus, read-out: MIC): ≤ 0.06 µg/mL
MIC (Acinetobacter guillouiae, isolate NO-Ab69, Acinetobacter guillouiae, read-out: MIC): ≤ 0.06 µg/mL
MIC (Acinetobacter guillouiae, isolate NO-Ab74, Acinetobacter guillouiae, read-out: MIC): 0.25 µg/mL
MIC (Acinetobacter haemolyticus, isolate NO-Ab92, Acinetobacter haemolyticus): 0.12 µg/mL
MIC (Acinetobacter haemolyticus, isolate NO-Ab177, Acinetobacter haemolyticus): 0.12 µg/mL
MIC (Acinetobacter haemolyticus, isolate NO-Ab217, Acinetobacter haemolyticus): 0.12 µg/mL
MIC (Acinetobacter johnsonii, isolate NO-Ab101, Acinetobacter johnsonii, read-out: MIC): 0.12 µg/mL
MIC (Acinetobacter junii, isolate NO-Ab76, Acinetobacter junii, read-out: MIC): ≤ 0.06 µg/mL
MIC (Acinetobacter junii, isolate NO-Ab77, Acinetobacter junii, OXA-24/40, read-out: MIC): 32 µg/mL
MIC (Acinetobacter lactucae, isolate NO-Ab60, Acinetobacter dijkshoorniae, read-out: MIC): 0.25 µg/mL
MIC (Acinetobacter lactucae, isolate NO-Ab63, Acinetobacter dijkshoorniae, read-out: MIC): 0.25 µg/mL
MIC (Acinetobacter lactucae, isolate NO-Ab65, Acinetobacter dijkshoorniae, read-out: MIC): 0.25 µg/mL
MIC (Acinetobacter lactucae, isolate NO-Ab86, Acinetobacter dijkshoorniae, read-out: MIC): 0.12 µg/mL
MIC (Acinetobacter lactucae, isolate NO-Ab88, Acinetobacter dijkshoorniae, read-out: MIC): 0.12 µg/mL
MIC (Acinetobacter lactucae, isolate NO-Ab91, Acinetobacter dijkshoorniae, read-out: MIC): 0.12 µg/mL
MIC (Acinetobacter lactucae, isolate NO-Ab121, Acinetobacter dijkshoorniae, read-out: MIC): 0.12 µg/mL
MIC (Acinetobacter lactucae, isolate NO-Ab125, Acinetobacter dijkshoorniae, read-out: MIC): ≤ 0.06 µg/mL
MIC (Acinetobacter lactucae, isolate NO-Ab160, Acinetobacter dijkshoorniae, read-out: MIC): 0.12 µg/mL
MIC (Acinetobacter nosocomialis, isolate NO-Ab43, Acinetobacter nosocomialis, read-out: MIC): ≤ 0.06 µg/mL
MIC (Acinetobacter nosocomialis, isolate NO-Ab68, Acinetobacter nosocomialis, OXA-24/40, read-out: MIC): 32 µg/mL
MIC (Acinetobacter nosocomialis, isolate NO-Ab98, Acinetobacter nosocomialis, read-out: MIC): 0.12 µg/mL
MIC (Acinetobacter nosocomialis, isolate NO-Ab208, Acinetobacter nosocomialis, read-out: MIC): 0.12 µg/mL
MIC (Acinetobacter pittii, isolate NO-Ab59, Acinetobacter pittii, read-out: MIC): 0.25 µg/mL
MIC (Acinetobacter pittii, isolate NO-Ab66, Acinetobacter pittii, read-out: MIC): 0.25 µg/mL
MIC (Acinetobacter pittii, isolate NO-Ab73, Acinetobacter pittii, read-out: MIC): ≤ 0.06 µg/mL
MIC (Acinetobacter pittii, isolate NO-Ab75, Acinetobacter pittii, read-out: MIC): 0.25 µg/mL
MIC (Acinetobacter pittii, isolate NO-Ab78, Acinetobacter pittii, read-out: MIC): ≤ 0.06 µg/mL
MIC (Acinetobacter pittii, isolate NO-Ab82, Acinetobacter pittii, read-out: MIC): ≤ 0.06 µg/mL
MIC (Acinetobacter pittii, isolate NO-Ab89, Acinetobacter pittii, read-out: MIC): 0.12 µg/mL
MIC (Acinetobacter pittii, isolate NO-Ab90, Acinetobacter pittii, read-out: MIC): ≤ 0.06 µg/mL
MIC (Acinetobacter pittii, isolate NO-Ab97, Acinetobacter pittii, read-out: MIC): ≤ 0.06 µg/mL
MIC (Acinetobacter pittii, isolate NO-Ab105, Acinetobacter pittii, read-out: MIC): 0.12 µg/mL
MIC (Acinetobacter pittii, isolate NO-Ab106, Acinetobacter pittii, read-out: MIC): ≤ 0.06 µg/mL
MIC (Acinetobacter pittii, isolate NO-Ab107, Acinetobacter pittii, read-out: MIC): ≤ 0.06 µg/mL
MIC (Acinetobacter pittii, isolate NO-Ab111, Acinetobacter pittii, read-out: MIC): 0.12 µg/mL
MIC (Acinetobacter pittii, isolate NO-Ab113, Acinetobacter pittii, read-out: MIC): 0.25 µg/mL
MIC (Acinetobacter pittii, isolate NO-Ab118, Acinetobacter pittii, read-out: MIC): 0.12 µg/mL
MIC (Acinetobacter pittii, isolate NO-Ab135, Acinetobacter pittii, read-out: MIC): 0.12 µg/mL
MIC (Acinetobacter pittii, isolate NO-Ab145, Acinetobacter pittii, read-out: MIC): 0.12 µg/mL
MIC (Acinetobacter pittii, isolate NO-Ab151, Acinetobacter pittii, read-out: MIC): 0.25 µg/mL
MIC (Acinetobacter pittii, isolate NO-Ab154, Acinetobacter pittii, read-out: MIC): 0.25 µg/mL
MIC (Acinetobacter pittii, isolate NO-Ab157, Acinetobacter pittii, read-out: MIC): 0.25 µg/mL
MIC (Acinetobacter pittii, isolate NO-Ab162, Acinetobacter pittii, read-out: MIC): 0.12 µg/mL
MIC (Acinetobacter pittii, isolate NO-Ab164, Acinetobacter pittii, read-out: MIC): ≤ 0.06 µg/mL
MIC (Acinetobacter pittii, isolate NO-Ab178, Acinetobacter pittii, read-out: MIC): 0.12 µg/mL
MIC (Acinetobacter pittii, isolate NO-Ab197, Acinetobacter pittii, read-out: MIC): 0.12 µg/mL
MIC (Acinetobacter proteolyticus, isolate NO-Ab99, Acinetobacter proteolyticus, read-out: MIC): 0.25 µg/mL
MIC (Acinetobacter proteolyticus, isolate NO-Ab102, Acinetobacter proteolyticus, read-out: MIC): 0.25 µg/mL
MIC (Acinetobacter proteolyticus, isolate NO-Ab210, Acinetobacter proteolyticus, read-out: MIC): ≤ 0.06 µg/mL
MIC (Acinetobacter radioresistens, isolate NO-Ab175, Acinetobacter radioresistens, read-out: MIC): 0.25 µg/mL
MIC (Acinetobacter radioresistens, isolate NO-Ab215, Acinetobacter radioresistens, read-out: MIC): 0.12 µg/mL
MIC (Acinetobacter ursingii, isolate NO-Ab3, Acinetobacter ursingii, read-out: MIC): ≤ 0.06 µg/mL
MIC (Acinetobacter ursingii, isolate NO-Ab64, Acinetobacter ursingii, read-out: MIC): ≤ 0.06 µg/mL
MIC (Acinetobacter ursingii, isolate NO-Ab87, Acinetobacter ursingii, read-out: MIC): ≤ 0.06 µg/mL
MIC (Acinetobacter ursingii, isolate NO-Ab103, Acinetobacter ursingii, read-out: MIC): ≤ 0.06 µg/mL
MIC (Acinetobacter ursingii, isolate NO-Ab119, Acinetobacter ursingii, read-out: MIC): 0.25 µg/mL
MIC (Acinetobacter ursingii, isolate NO-Ab120, Acinetobacter ursingii, read-out: MIC): ≤ 0.06 µg/mL
MIC (Acinetobacter ursingii, isolate NO-Ab123, Acinetobacter ursingii, read-out: MIC): ≤ 0.06 µg/mL
MIC (Acinetobacter ursingii, isolate NO-Ab126, Acinetobacter ursingii, read-out: MIC): 0.12 µg/mL
MIC (Acinetobacter ursingii, isolate NO-Ab147, Acinetobacter ursingii, read-out: MIC): 0.25 µg/mL
MIC (Acinetobacter ursingii, isolate NO-Ab155, Acinetobacter ursingii, read-out: MIC): 0.25 µg/mL
MIC (Acinetobacter ursingii, isolate NO-Ab165, Acinetobacter ursingii, read-out: MIC): 0.12 µg/mL
MIC (Acinetobacter ursingii, isolate NO-Ab166, Acinetobacter ursingii, read-out: MIC): ≤ 0.06 µg/mL
MIC (Acinetobacter ursingii, isolate NO-Ab214, Acinetobacter ursingii, read-out: MIC): ≤ 0.06 µg/mL
MIC (Acinetobacter ursingii, isolate NO-Ab221, Acinetobacter ursingii, read-out: MIC): ≤ 0.06 µg/mL
MIC (Acinetobacter ursingii, isolate NO-Ab222, Acinetobacter ursingii, read-out: MIC): ≤ 0.06 µg/mL
MIC (Acinetobacter, isolate NO-Ab146, Acinetobacter iwoffii, read-out: MIC): 0.25 µg/mL
MIC (Acinetobacter, isolate NO-Ab159, Acinetobacter iwoffii, read-out: MIC): ≤ 0.06 µg/mL
MIC50 [1]: 0.12 µg/mL
MIC90 [1]: 0.25 µg/mL
MIC distribution 0.25 (cumulative share of A. non-baumannii isolates (n=87) at MIC 0.25 mg/L, ETZ fixed 8 mg/L in combinations): 96.6
MIC distribution 0.5 (cumulative share of A. non-baumannii isolates (n=87) at MIC 0.5 mg/L, ETZ fixed 8 mg/L in combinations): 97.7
MIC distribution 1 (cumulative share of A. non-baumannii isolates (n=87) at MIC 1 mg/L, ETZ fixed 8 mg/L in combinations): 97.7
MIC distribution 2 (cumulative share of A. non-baumannii isolates (n=87) at MIC 2 mg/L, ETZ fixed 8 mg/L in combinations): 97.7
MIC distribution 4 (cumulative share of A. non-baumannii isolates (n=87) at MIC 4 mg/L, ETZ fixed 8 mg/L in combinations): 97.7
MIC distribution 8 (cumulative share of A. non-baumannii isolates (n=87) at MIC 8 mg/L, ETZ fixed 8 mg/L in combinations): 97.7
MIC distribution 16 (cumulative share of A. non-baumannii isolates (n=87) at MIC 16 mg/L, ETZ fixed 8 mg/L in combinations): 97.7
MIC distribution 32 (cumulative share of A. non-baumannii isolates (n=87) at MIC 32 mg/L, ETZ fixed 8 mg/L in combinations): 100
MIC distribution ≤0.06 (cumulative share of A. non-baumannii isolates (n=87) at MIC ≤0.06 mg/L, ETZ fixed 8 mg/L in combinations): 32.2
